According to PubChem BioAssay (NCI):
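Protocol summary: plate cells (96-well), add compound at 5 concentrations, incubate 48 h, interpolate endpoints linearly. TGI is the concentration that stops growth completely.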

Assays:
Test in all cases: NCI tumour cell line growth inhibition, 48 h
[1] = tested on: T-47D breast
[2] = tested on: KM12 colon
[3] = tested on: OVCAR-4 ovarian
[4] = tested on: HCT-15 colon
[5] = tested on: RPMI-8226 leukemia
[6] = tested on: OVCAR-5 ovarian
[7] = tested on: SF-539 CNS
[8] = tested on: MDA-MB-231 breast
[9] = tested on: 786-0 renal
[10] = tested on: SF-268 CNS
[11] = tested on: HCC-2998 colon
[12] = tested on: LOX IMVI melanoma
[13] = tested on: BT-549 breast
[14] = tested on: COLO 205 colon
[15] = tested on: EKVX NSCLC
[16] = tested on: NCI-H226 lung
[17] = tested on: NCI-H23 lung
[18] = tested on: M14 melanoma
[19] = tested on: SN12C renal

| Structure (SMILES) | TGI [1] [µM] | TGI [2] [µM] | TGI [3] [µM] | TGI [4] [µM] | TGI [5] [µM] | TGI [6] [µM] | TGI [7] [µM] | TGI [8] [µM] | TGI [9] [µM] | TGI [10] [µM] | TGI [11] [µM] | TGI [12] [µM] | TGI [13] [µM] | TGI [14] [µM] | TGI [15] [µM] | TGI [16] [µM] | TGI [17] [µM] | TGI [18] [µM] | TGI [19] [µM] |
| --- | --- | --- | --- | --- | --- | --- | --- | --- | --- | --- | --- | --- | --- | --- | --- | --- | --- | --- | --- |
| CCOP(=O)(O)C(Nc1ccc(N=Nc2ccccc2)cc1)c1cccc(C(Nc2ccc(N=Nc3ccccc3)cc2)P(=O)(O)OCC)c1 (stereo unspecified) | > 100 | > 100 | > 100 | > 100 | 86.5 | > 100 | > 100 | > 100 | > 100 | > 100 | 71.3 | 77.4 | > 100 | 43.2 | > 100 | > 100 | > 100 | > 100 | > 100 |
| COc1ccc2nc3ccc(OC)cc3c(SCCCl)c2c1 | > 97.2 | > 71 | > 85 | > 100 | 10.6 | > 40.8 | > 50.5 | 99.3 | 30.1 | > 100 | > 100 | 21.3 | > 100 | > 72.3 | > 100 | > 100 | > 100 | > 21.3 | > 100 |
| Cc1nn(C(=O)c2ccncc2)c2c1C(c1ccccc1[N+](=O)[O-])SC(N)=N2 (stereo unspecified) | > 10 | > 10 | > 10 | > 10 | > 10 | > 10 | > 10 | > 10 | > 10 | > 10 | > 10 | > 10 | > 10 | > 10 | > 10 | > 10 | > 10 | > 10 | > 10 |
| Cc1ccc(C(=O)Oc2ccccc2)cc1N=NN(C)C | > 100 | > 100 | > 100 | > 100 | > 100 | > 100 | > 100 | > 100 | > 100 | > 100 | > 100 | > 100 | > 100 | > 100 | > 100 | > 100 | > 100 | > 100 | > 100 |
| CC(C)[Si]1(C(C)C)OCC2OC(n3ccc(=O)[nH]c3=O)C([Se]c3ccccc3)C2O[Si](C(C)C)(C(C)C)O1 (stereo unspecified) | 19.9 | 6.62 | 9.67 | 16.3 | 10.9 | 22.8 | 20.7 | 7.79 | 7.77 | 10.3 | 3 | 2.45 | 23.7 | 16.6 | 17.5 | 3.88 | 13 | 21.8 | 5.57 |
| O=[N+]([O-])/C(Cl)=C(/C(Cl)=C(Cl)Cl)N1CCOCC1 | 9.36 | 13.1 | 16.7 | 3.24 | 6.58 | 22 | 9.05 | 8.89 | 10 | 24.4 | 7.52 | 17.3 | 8.86 | 5.45 | 21.6 | 40.4 | 5.68 | 7.66 | 20 |
| Cc1[nH]c(-c2ccccc2)c2nc(N(C)C)oc(=O)c12 | > 100 | > 100 | > 100 | > 100 | > 100 | > 100 | > 100 | > 100 | > 100 | > 100 | > 100 | > 100 | > 100 | > 100 | > 100 | > 100 | > 100 | > 100 | > 100 |
| O=C1Oc2ccccc2C(=O)/C1=C/N1C(=O)CNC1=S | > 100 | > 100 | > 100 | > 100 | > 100 | > 100 | > 100 | > 100 | > 100 | > 100 | > 100 | > 100 | > 100 | > 100 | > 100 | > 100 | > 100 | > 100 | > 100 |
| CC(C)(C)OC(=O)N1CCCC1C(=O)NC(c1ccccc1)c1ccccc1 (stereo unspecified) | > 100 | > 100 | > 100 | > 100 | > 100 | > 100 | > 100 | > 100 | > 100 | > 100 | > 100 | > 100 | > 100 | > 100 | > 100 | > 100 | > 100 | > 100 | > 100 |
| O=C1NC2(CCNCC2)Oc2ccccc21 | > 100 | > 100 | > 100 | > 100 | > 100 | > 100 | > 100 | > 100 | > 100 | > 100 | > 100 | > 100 | > 100 | > 100 | > 100 | > 100 | > 100 | > 100 | > 100 |
| CC(C)[C@H]1NC(=O)[C@H]2N=C(S[C@H]2C)[C@@H]2CCCN2C(=O)[C@H](Cc2ccccc2)NC(=O)[C@@H]2CSC(=N2)[C@@H](Cc2ccccc2)NC(=O)[C@@H]2CSC1=N2 | > 50 | > 50 | > 50 | > 50 | 19.8 | > 50 | > 50 | > 50 | > 50 | > 50 | 28.2 | > 50 | > 50 | > 50 | > 50 | > 50 | > 50 | > 50 | > 50 |
| C[C@@H]1CC[C@H]2[C@H](C)C(OC3O[C@@H]4O[C@@]5(C)CC[C@H]6[C@H](C)CC[C@@H]([C@@H]3C)[C@@]46O5)O[C@@H]3O[C@@]4(C)CC[C@@H]1[C@]32O4 (stereo partly specified) | > 100 | > 100 | > 100 | > 100 | > 100 | > 100 | > 100 | > 100 | > 100 | > 100 | > 100 | > 100 | > 100 | > 100 | > 100 | > 100 | > 100 | > 100 | > 100 |
| CC(C)(C)O/N=C/c1cc(NC(=S)c2ccsc2)ccc1Cl | 16.1 | 23.3 | 28.7 | 27.7 | 12.2 | 32.9 | 37 | 32.1 | 31.6 | 38.2 | 27.6 | 30.7 | 27 | 28.3 | 41.1 | 35.9 | 20.7 | 31.4 | 32.2 |
| O=C1NC(N/N=C\c2ccccc2)=N/C1=C/c1ccccc1 | > 100 | > 100 | 55.9 | > 100 | > 100 | 44.5 | 43.5 | > 100 | > 100 | > 100 | 40 | > 100 | 71.2 | > 100 | 74.5 | 50.2 | 58.7 | > 100 | > 100 |
| CN=c1sc2nc(C#N)c(C#N)nc2n1C | > 91.7 | > 67.8 | 49.1 | 41.2 | > 84.9 | 51.6 | > 70.9 | > 80.7 | > 60 | > 94.7 | 55.8 | 46.5 | 62.8 | 32.1 | 73.8 | 38.8 | 37.9 | > 58.9 | > 100 |
| CC1=NN(c2nc(N)nc(/C(C#N)=C\c3ccc(-c4ccc([N+](=O)[O-])cc4)o3)n2)C(C)(C)C1 | > 100 | > 100 | > 100 | > 100 | > 100 | > 100 | > 100 | > 100 | > 100 | > 100 | > 100 | > 100 | > 100 | > 100 | > 100 | > 100 | > 100 | > 100 | > 100 |
| CC(C)OP(=O)(OC(C)C)C(C)(C)O | > 100 | > 100 | > 100 | > 100 | > 100 | > 100 | > 100 | > 100 | > 100 | > 100 | > 100 | > 100 | > 100 | > 100 | > 100 | > 100 | > 100 | > 100 | > 100 |
| COc1ccc(COCC[C@H](C)OC2OC(CO)C(O)C(O)C2O)cc1 (stereo partly specified) | > 100 | > 100 | > 100 | > 100 | > 100 | > 100 | > 100 | > 100 | > 100 | > 100 | > 100 | > 100 | > 100 | > 100 | > 100 | > 100 | > 100 | > 100 | > 100 |
| CN(N=O)c1nc2c(C(N)=O)ncn2s1 | > 100 | > 100 | > 100 | > 100 | > 100 | > 100 | > 100 | > 100 | > 100 | > 100 | > 100 | > 100 | > 100 | > 100 | > 100 | > 100 | > 100 | > 100 | > 100 |
